Test systems include A498 renal; HCC-2998 colon; HL-60(TB) leukemia; RXF 393 renal; SK-MEL-5 melanoma; SNB-19 CNS; SNB-75 CNS; SR leukemia; TK-10 renal; UACC-257 melanoma.
What all share (assay): NCI tumour cell line growth inhibition, 48 h

Values joined by “and” are separate entries in the source; they are usually repeats but may differ in a detail not shown here. Equal entries are not always repeated.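 48-hour exposure; five concentrations; linearly interpolated endpoints. GI50 = concentration required for 50% inhibition of growth. TGI marks complete inhibition of growth.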

Our source for the GI50 and TGI values is PubChem BioAssay (NCI).

Take `Cn1cc(C2=C(c3ccc4ccccc4c3)C(=O)NC2=O)c2ccccc21`: the GI50 in the experiment with A498 renal is more than 25 µM; with HCC-2998 colon, more than 25 µM; with HL-60(TB) leukemia, more than 21.4 µM; in the experiment with RXF 393 renal, more than 25 µM; with SK-MEL-5 melanoma, more than 25 µM; with SNB-19 CNS, more than 25 µM. Besides, the GI50 in the experiment with SNB-75 CNS is 7.47 µM; with SR leukemia, 3.11 µM; with TK-10 renal it was more than 25 µM; in the experiment with UACC-257 melanoma, more than 25 µM. For the same molecule, the TGI with A498 renal, in the experiment on HCC-2998 colon, in the experiment on HL-60(TB) leukemia, in the experiment on RXF 393 renal, with SK-MEL-5 melanoma and in the experiment on SNB-19 CNS was more than 25 µM in each case. Moreover, the TGI in the experiment with SNB-75 CNS, in the experiment with SR leukemia, with TK-10 renal and in the experiment with UACC-257 melanoma was more than 25 µM throughout.
In the case of `O=C(Nc1nc2ncn(CCI)c2c(=O)[nH]1)c1ccccc1`, the TGI is 83.3 µM in the experiment with A498 renal; more than 100 µM in the experiment with HCC-2998 colon; more than 100 µM in the experiment with HL-60(TB) leukemia; 59.3 µM in the experiment on RXF 393 renal; more than 100 µM in the experiment with SK-MEL-5 melanoma; more than 100 µM with SNB-19 CNS. In addition, the TGI is 46.4 µM in the experiment with SNB-75 CNS, more than 100 µM in the experiment on SR leukemia, more than 100 µM with TK-10 renal and more than 100 µM with UACC-257 melanoma.
Regarding `C#Cc1cccc(Nc2ncnc3cc(OC)c(OCCCCCCC(=O)NO)cc23)c1`, the GI50 with A498 renal is 0.162 µM; with HCC-2998 colon it was 0.217 µM; in the experiment on HL-60(TB) leukemia, 0.334 µM; with RXF 393 renal it was 0.0752 µM; with SK-MEL-5 melanoma, 0.177 µM; with SNB-19 CNS it was 0.115 µM. Besides, the GI50 in the experiment on SNB-75 CNS was 0.0267 µM; in the experiment with SR leukemia, 0.0219 µM; with TK-10 renal, 0.185 µM; in the experiment with UACC-257 melanoma, 0.123 µM. Also, the TGI in the experiment with A498 renal worked out at 0.662 µM; with HCC-2998 colon, 1.34 µM; with HL-60(TB) leukemia, 1.7 µM; with RXF 393 renal it was 0.367 µM; in the experiment with SK-MEL-5 melanoma, 0.496 µM; in the experiment on SNB-19 CNS, 3.65 µM. The TGI with SNB-75 CNS stood at 0.468 µM; in the experiment on SR leukemia, 2.09 µM; in the experiment with TK-10 renal, 2.36 µM; in the experiment with UACC-257 melanoma it was 1.12 µM.
On to `O=C1NC(=Nc2ccccc2)S/C1=C\c1ccc2ncccc2c1`, for which the TGI in the experiment with A498 renal is more than 18.4 µM; in the experiment with HCC-2998 colon, more than 25 µM; with HL-60(TB) leukemia it was more than 25 µM; with RXF 393 renal, more than 25 µM; in the experiment with SK-MEL-5 melanoma, more than 25 µM; with SNB-19 CNS, more than 25 µM. Moreover, the TGI in the experiment with SNB-75 CNS, in the experiment on SR leukemia, in the experiment on TK-10 renal and in the experiment with UACC-257 melanoma was more than 25 µM in each case. Besides, the GI50 is more than 25 µM with HCC-2998 colon; 1.42 µM in the experiment with HL-60(TB) leukemia; more than 25 µM in the experiment with RXF 393 renal; more than 25 µM in the experiment with SK-MEL-5 melanoma; more than 22.9 µM in the experiment on SNB-19 CNS; 0.64 µM in the experiment with SR leukemia. For the same molecule, the GI50 with TK-10 renal and in the experiment with UACC-257 melanoma was more than 25 µM in each case.
Take `O=C(OCc1ccc2cccc(O)c2n1)N1CCN(C(=O)c2cc3cc(F)ccc3[nH]2)CC1`: the GI50 was 1.71 µM in the experiment on A498 renal; 1.69 µM in the experiment with HCC-2998 colon; 1.31 µM in the experiment on HL-60(TB) leukemia; 0.981 µM in the experiment with RXF 393 renal; 1.69 µM in the experiment on SK-MEL-5 melanoma; 1.55 µM in the experiment on SNB-19 CNS. The GI50 was 1.02 µM in the experiment on SNB-75 CNS, 0.272 µM in the experiment on SR leukemia, 1.77 µM with TK-10 renal and 1.46 µM with UACC-257 melanoma. The TGI in the experiment with A498 renal stood at 3.25 µM; in the experiment with HCC-2998 colon it was 3.26 µM; in the experiment on HL-60(TB) leukemia, 3.47 µM; with RXF 393 renal it was 2.17 µM; in the experiment on SK-MEL-5 melanoma it was 3.07 µM; in the experiment with SNB-19 CNS, 2.92 µM. The TGI in the experiment with SNB-75 CNS came to 2.24 µM; in the experiment with SR leukemia it was 1.6 µM; in the experiment with TK-10 renal it was 3.16 µM; with UACC-257 melanoma it was 2.89 µM.
Consider `Oc1[nH]c2ccccc2c1N=Nc1ccccc1Cl`, for which the TGI with A498 renal was more than 79.9 µM; with HCC-2998 colon, more than 100 µM; in the experiment on HL-60(TB) leukemia, more than 100 µM; in the experiment on RXF 393 renal, more than 85.2 µM; with SK-MEL-5 melanoma, more than 100 µM; with SNB-19 CNS, more than 83.6 µM. In addition, the TGI is more than 79.6 µM in the experiment with SNB-75 CNS, 34.3 µM in the experiment on SR leukemia, 32.8 µM in the experiment on TK-10 renal and more than 100 µM with UACC-257 melanoma.
For the molecule `O=c1n(CC2CO2)c(=O)n(CC2CO2)c(=O)n1CC1CO1` (stereo not drawn), the GI50 was 12.2 µM with A498 renal; 11.4 µM and 21.2 µM with HCC-2998 colon; 5.21 µM and 2.39 µM with HL-60(TB) leukemia; 4.01 µM in the experiment on RXF 393 renal; 16.8 µM and 25.3 µM and 9.6 µM in the experiment with SK-MEL-5 melanoma; 22 µM and 6.55 µM in the experiment with SNB-19 CNS. Besides, the GI50 was 6.8 µM and 21.1 µM in the experiment on SNB-75 CNS; 13.2 µM and 1.5 µM with SR leukemia; 21.1 µM in the experiment with TK-10 renal; 15.4 µM in the experiment with UACC-257 melanoma. Also, the TGI with A498 renal was 83.9 µM and 26.5 µM; in the experiment on HCC-2998 colon, 27 µM and 108 µM and > 100 µM; with HL-60(TB) leukemia, 28.1 µM and > 100 µM; with RXF 393 renal it was 109 µM and 23.8 µM; in the experiment with SK-MEL-5 melanoma, 37.3 µM and 79.6 µM and 75.6 µM; in the experiment with SNB-19 CNS it was 98.3 µM and > 100 µM. Besides, the TGI in the experiment with SNB-75 CNS was 89.8 µM and > 100 µM; in the experiment with SR leukemia, 877 µM and > 100 µM; in the experiment with TK-10 renal, 121 µM and > 100 µM; with UACC-257 melanoma, 38.4 µM and 109 µM.
Take `NC(=NCCCOc1ccc(Cl)cc1)Nc1ccc(C(F)(F)F)cc1`: the GI50 was 2.08 µM in the experiment on A498 renal; 1.2 µM with HCC-2998 colon; 1.59 µM with HL-60(TB) leukemia; 1.42 µM with RXF 393 renal; 1.61 µM with SK-MEL-5 melanoma; 2.79 µM with SNB-19 CNS. The GI50 in the experiment with SNB-75 CNS was 0.914 µM; with SR leukemia it was 1.77 µM; with TK-10 renal, 1.73 µM; with UACC-257 melanoma, 1.72 µM. The TGI with A498 renal came out at 6.08 µM; with HCC-2998 colon, 2.64 µM; with HL-60(TB) leukemia, 3.77 µM; with RXF 393 renal, 5.52 µM; in the experiment on SK-MEL-5 melanoma, 2.97 µM; in the experiment with SNB-19 CNS, 19.5 µM. The TGI was 7.67 µM in the experiment with SNB-75 CNS, 5.95 µM with SR leukemia, 3.66 µM in the experiment with TK-10 renal and 3.56 µM in the experiment with UACC-257 melanoma.
Consider `CC(SC(C)C(=O)N/N=C/c1cccc(Cl)c1)C(=O)N/N=C\c1cccc(Cl)c1` (stereo not drawn), for which the GI50 with A498 renal was 14.6 µM; in the experiment with HCC-2998 colon, 8 µM; with HL-60(TB) leukemia, 6.24 µM; in the experiment on RXF 393 renal it was 22.6 µM; with SK-MEL-5 melanoma, 16.3 µM; with SNB-19 CNS, 21.7 µM. Also, the GI50 in the experiment on SNB-75 CNS is 4.28 µM; in the experiment with SR leukemia it was 3.53 µM; with TK-10 renal, 4.66 µM; with UACC-257 melanoma, 32.3 µM. The TGI in the experiment on A498 renal was 32.2 µM; in the experiment with HCC-2998 colon it was 75.8 µM; in the experiment on HL-60(TB) leukemia it was more than 100 µM; in the experiment on RXF 393 renal, 90.1 µM; in the experiment on SK-MEL-5 melanoma it was 31.4 µM; in the experiment with SNB-19 CNS, more than 100 µM. The TGI was 19.5 µM with SNB-75 CNS, 11.1 µM in the experiment with SR leukemia, 18.1 µM in the experiment with TK-10 renal and more than 100 µM in the experiment on UACC-257 melanoma.
Consider `O=S(=O)([O-])c1ccc2c(c1)-c1nc-2nc2[n-]c(nc3nc(nc4[n-]c(n1)c1ccc(S(=O)(=O)[O-])cc41)-c1cc(S(=O)(=O)[O-])ccc1-3)c1ccc(S(=O)(=O)[O-])cc21.[Cu+2].[Na+]`, for which the GI50 with A498 renal is more than 100 µM; with HCC-2998 colon, more than 100 µM; in the experiment with HL-60(TB) leukemia, 0.174 µM; in the experiment on RXF 393 renal it was 49.4 µM; with SK-MEL-5 melanoma it was more than 100 µM; with SNB-19 CNS it was more than 68.4 µM. Further, the GI50 was more than 67.3 µM with SNB-75 CNS, 11.2 µM in the experiment with SR leukemia, more than 55.9 µM with TK-10 renal and more than 100 µM with UACC-257 melanoma. Moreover, the TGI with A498 renal is more than 100 µM; in the experiment with HCC-2998 colon, more than 100 µM; in the experiment with HL-60(TB) leukemia, more than 17.7 µM; in the experiment on RXF 393 renal, more than 100 µM; in the experiment on SK-MEL-5 melanoma, more than 100 µM; in the experiment on SNB-19 CNS, more than 100 µM. For the same molecule, the TGI in the experiment with SNB-75 CNS, with SR leukemia, in the experiment with TK-10 renal and in the experiment on UACC-257 melanoma was more than 100 µM in each case.
Regarding `CCN1CCN(c2ccc(Nc3cc(N(C)C(=O)Nc4c(Cl)c(OC)cc(OC)c4Cl)ncn3)cc2)CC1`, the GI50 was less than 0.0113 µM in the experiment on A498 renal; 8.04 µM in the experiment with HCC-2998 colon; 2.14 µM with HL-60(TB) leukemia; 1.13 µM with RXF 393 renal; 4.27 µM in the experiment on SK-MEL-5 melanoma; 4.06 µM in the experiment on SNB-19 CNS. Moreover, the GI50 with SNB-75 CNS is 5.23 µM; with SR leukemia, 2.02 µM; in the experiment on TK-10 renal it was 2.5 µM; in the experiment with UACC-257 melanoma, 1.77 µM. The TGI in the experiment with A498 renal was 0.062 µM; with HCC-2998 colon, 32.5 µM; in the experiment on HL-60(TB) leukemia, 4.42 µM; with RXF 393 renal, 2.72 µM; in the experiment with SK-MEL-5 melanoma, 8.47 µM; with SNB-19 CNS, 18.7 µM. The TGI stood at 22.2 µM with SNB-75 CNS, 4.63 µM with SR leukemia, 12.5 µM with TK-10 renal and 3.7 µM in the experiment on UACC-257 melanoma.
